# Source: patent publication US20110118343A1, “Antitumoral Macrolides” (Pharma Mar, S. A., priority 2008, published 2011)
# Where two headings read alike, the source gives them in different places.
# Experiments:
# A549 [1] = experiment: SRB colorimetric cytotoxicity assay, A549; assay type: cell-based; conditions: for TGI / GI50: A549, 72 hours treatment, SRB; for TGI: total cell growth inhibition; for CC50 / GI50: Homo sapiens; for CC50: A549, 72 h, read-out: LC50
# Description: (§1) The aim of this assay is to evaluate the in vitro cytostatic (ability to delay or arrest tumor cell growth) or cytotoxic (ability to kill tumor cells) activity of the samples being tested.
# (§2) A colorimetric assay, using sulforhodamine B (SRB) reaction has been adapted to provide a quantitative measurement of cell growth and viability (following the technique described by Skehan et al. J. Natl. Cancer Inst. 1990, 82, 1107-1112).
# (§3) This form of assay employs SBS-standard 96-well cell culture microplates (Faircloth et al. Methods in Cell Science, 1988, 11(4), 201-205; Mosmann et al, Journal of Immunological Methods, 1983, 65(1-2), 55-63). All the cell lines used in this study were obtained from the American Type Culture Collection (ATCC) and derive from different types of human cancer.
# (§4) Cells were maintained in Dulbecco's Modified Eagle Medium (DMEM) supplemented with 10% Fetal Bovine Serum (FBS), 2 mM L-glutamine, 100 U/mL penicillin and 100 U/mL streptomycin at 37° C., 5% CO2 and 98% humidity. For the experiments, cells were harvested from subconfluent cultures using trypsinization and resuspended in fresh medium before counting and plating.
# (§5) Cells were seeded in 96 well microtiter plates, at 5×10^3-7.5×10^3 cells per well in aliquots of 150 μL, and allowed to attach to the plate surface for 18 hours (overnight) in drug free medium. After that, one control (untreated) plate of each cell line was fixed (as described below) and used for time zero reference value. Culture plates were then treated with test compounds (50 μL aliquots of 4× stock solutions in complete culture medium plus 4% DMSO) using ten serial dilutions (concentrations ranging from 10 to 0.00262 μg/mL) and triplicate cultures (1% final concentration of DMSO). After 72 hours treatment, the antitumor effect was measured by using the SRB methodology: Briefly, cells were washed twice with PBS, fixed for 15 min in 1% glutaraldehyde solution at room temperature, rinsed twice in PBS, and stained in 0.4% SRB solution for 30 min at room temperature. Cells were then rinsed several times with 1% acetic acid solution and air-dried at room temperature. SRB was then extracted in 10 mM trizma base solution and the absorbance measured in an automated spectrophotometric plate reader at 490 nm. Effects on cell growth and survival were estimated by applying the NCI algorithm (Boyd M R and Paull K D. Drug Dev. Res. 1995, 34, 91-104).
# (§6) Using the mean±SD of triplicate cultures, a dose-response curve was automatically generated using nonlinear regression analysis. Three reference parameters were calculated (NCI algorithm) by automatic interpolation: GI50=compound concentration that produces 50% cell growth inhibition, as compared to control cultures; TGI=compound concentration that produces total cell growth inhibition (cytostatic effect), as compared to control cultures, and LC50=compound concentration that produces 50% net cell killing (cytotoxic effect).
# HT29 [2] = experiment: SRB colorimetric cytotoxicity assay, HT29; assay type: cell-based; conditions: for TGI / GI50: HT29, 72 hours treatment, SRB; for TGI: total cell growth inhibition; for CC50 / GI50: Homo sapiens; for CC50: HT-29, 72 h, read-out: LC50; for GI50: HT-29
# Description: as §1, §2, §3, §4, §5, §6
# MDA-MB-231 [3] = experiment: SRB colorimetric cytotoxicity assay, MDA-MB-231; assay type: cell-based; conditions: for LC50 (concentration killing 50% of cells) / GI50: Homo sapiens; for LC50 (concentration killing 50% of cells): MDA-MB-231, 72 h, read-out: LC50; for GI50 / TGI: MDA-MB-231, 72 hours treatment, SRB; for TGI: total cell growth inhibition
# Description: as §1, §2, §3, §4, §5, §6
# L1210 = L1210 cell line; cited from earlier work
# P388 leukemia = conditions: cited from earlier work; for antitumor activity / toxicity in antitumoral study: P388 leukemia cell line in CDF1 mice
# KB cells = conditions: KB cell line; cited from earlier work
# HT29 [4] = conditions: cited from earlier work
# A549 [5] = conditions: cited from earlier work
# MDA-MB-231 [6] = conditions: cited from earlier work
Compound,TGI (A549 [1]) [Molar],CC50 (A549 [1]) [nM],GI50 (A549 [1]) [nM],TGI (HT29 [2]) [Molar],CC50 (HT29 [2]) [nM],GI50 (HT29 [2]) [nM],LC50 (concentration killing 50% of cells) (MDA-MB-231 [3]) [nM],GI50 (MDA-MB-231 [3]) [nM],TGI (MDA-MB-231 [3]) [Molar],IC50 (cytotoxicity) (L1210) [µg/mL],antitumor activity (P388 leukemia),toxicity in antitumoral study (P388 leukemia),IC50 (cytotoxicity) (KB cells) [µg/mL],further results
COCC1C/C(C)=C\C2OC(=O)C/C(=C\C=C\C(O)CC(O)C(C)C(OC)CCC(C)C(OC)CC3CC(=CC(=O)O3)CC(=O)N/C=C\C=C\CC(CC(=O)OC)CC(O)C/C(C)=C\C=C\C(OC)CC(=O)O1)C2C (stereo not shown) [Nanomolide C],2.47E−08,49.3,14.2,1.52E−08,21.8,12.3,22.8,15.2,1.90E−08,–,–,–,–,–
CO[C@H]1CC(CC[C@H](C)[C@H](O)[C@H](C)[C@H]2OC(=O)/C=C/C(C)=C/C[C@H](O)C[C@@H]3C=CC[C@@H](C[C@H](OC)[C@@H](C)[C@@H](O)C[C@@H](O)[C@H](C)[C@@H]([C@@H](C)[C@@H](O)[C@@H](C)CC[C@H]4C[C@H](OC)C[C@H](C)O4)OC(=O)/C=C/C(C)=C/C[C@H](O)C[C@@H]4C=CC[C@@H](C[C@H](OC)[C@@H](C)[C@@H](O)C[C@@H](O)[C@@H]2C)O4)O3)O[C@@H](C)C1 (stereo partly shown) [Swinholide A],–,–,–,–,–,–,–,–,–,0.03,did not show promising antitumor activity,toxic,0.04,–
COC1CC(C)OC(CCC(C)C(O)C(C)C2OC(=O)/C=C/C(C)=C/CC(O)CC3C=CCC(CC(OC)C(C)C(O)CC(O)C(C)C(C(C)C(O)C(C)CCC4CC(OC)CC(C)O4)OC(=O)/C(C)=C/CC(O)CC4C=CCC(CC(OC)C(C)C(O)CC(O)C2C)O4)O3)C1 (stereo not shown) [compound a],–,–,–,–,–,–,–,–,–,–,–,–,–,GI50 (HT29 [4]): 338 nM; GI50 (A549 [5]): 228 nM; GI50 (MDA-MB-231 [6]): 808 nM
CO[C@H]1CC(CC[C@H](C)[C@H](O)[C@H](C)C2OC(=O)/C=C/C(C)=C/C[C@H](O)C[C@@H]3C=CC[C@@H](C[C@H](OC)[C@@H](C)[C@@H](O)C[C@@H](O)[C@H](C)[C@H](O)[C@@H](C)[C@H]([C@@H](C)CC[C@H]4C[C@H](OC)C[C@H](C)O4)OC(=O)/C=C/C(C)=C/C[C@H](O)C[C@@H]4C=CCC(C[C@H](OC)[C@@H](C)[C@@H](O)C[C@@H](O)[C@@H]2C)O4)O3)O[C@@H](C)C1 (stereo partly shown) [isoswinholide A],–,–,–,–,–,–,–,–,–,1.35,did not show promising antitumor activity,toxic,1.1,–
Swinholide B,–,–,–,–,–,–,–,–,–,0.30,–,–,0.04,–
COCC1C/C(C)=C\C2OC(=O)C=C(C/C=C/C(O)CC(O)C(C)C(OC)CCC(C)C(OC)CC3CC(=CC(=O)O3)CC(=O)N/C=C\C=C\CC3CC(=O)OC(C/C(C)=C\C=C\C(OC)CC(=O)O1)C3)C2C (stereo not shown) [Nanomolide B],1.27E−07,235,73.4,9.29E−08,97.8,88,108,94.9,9.78E−08,–,–,–,–,–
COC1CC(C)OC(CCC(C)C(O)C(C)C2OC(=O)/C=C\C(C)=C\CC(O)CC3C=CCC(CC(OC)C(C)C(O)CC(O)C(C)C(C(C)C(O)C(C)CCC4CC(O)CC(C)O4)OC(=O)/C=C\C(C)=C\CC(O)CC4C=CCC(CC(OC)C(C)C(O)CC(O)C2C)O4)O3)C1 (stereo not shown) [Swinholide C],–,–,–,–,–,–,–,–,–,0.14,–,–,0.05,–
COC1CC(C)OC(CCC(C)C(O)C(C)C2OC(=O)/C(C)=C/CC(O)CC3C=CCC(CC(OC)C(C)C(O)CC(O)C(C)C(C(C)C(O)C(C)CCC4CC(OC)CC(C)O4)OC(=O)/C(C)=C/CC(O)CC4C=CCC(CC(OC)C(C)C(O)CC(O)C2C)O4)O3)C1 (stereo not shown) [Misakinolide A],–,–,–,–,–,–,–,–,–,0.035,–,–,–,T/C (P388 leukemia; dose of 0.1 mg/kg (mouse) against P388 leukemia): 140%
"CO[C@H]1CC(CC[C@H](C)C2OC(=O)/C=C/C(C)=C/CC(O)C[C@@H]3C=CCC(C[C@H](OC)[C@@H](C)[C@@H](O)C[C@@H](O)[C@H](C)[C@H](O)[C@@H](C)[C@H]([C@@H](C)CC[C@H]4C[C@H](OC)C[C@H](C)O4)OC(=O)/C=C/C(C)=C/C[C@H](O)C[C@@H]4C=CCC(C[C@H](OC)[C@@H](C)[C@@H](O)C[C@@H](O)[C@H](C)[C@H](O)[C@H]2C)O4)O3)O[C@@H](C)C1 (single isomer, unassigned) [isomer 11]",–,–,–,–,–,–,–,–,–,–,did not show promising antitumor activity,toxic,–,–
COCC1C/C(C)=C\C2OC(=O)C=C(C/C=C/C(O)CC(O)C(C)C(OC)CCC(C)C(OC)CC3CC(=CC(=O)O3)CC(=O)N/C=C\C=C\CC(CC(=O)OC)CC(O)C/C(C)=C\C=C\C(OC)CC(=O)O1)C2C (stereo not shown) [Nanomolide A],1.52E−08,23.7,10.4,1.04E−08,16.1,7.59,45.5,8.35,1.71E−08,–,–,–,–,–
